Results on 50 compounds are retold here after patent US20070213359A1 (ACADIA Pharmaceuticals Inc., priority 2005, published 2007).

The test addresses Ghrelin receptor (Homo sapiens, UniProt Q92847). The experiment in a line: Receptor Selection and Amplification Technology (R-SAT) assay. The class given is cell-based. Details: expressed in transfected cells; host or cells: NIH3T3. Conditions: for IC50: negative logarithm of ligand concentration causing 50% inhibition of constitutive receptor response, transfected NIH3T3 cells, '—' not defined (nd used separately), read-out: RSAT pIC50 (converted); for Emax: percent inhibition at saturating ligand, normalized to reference ligand Substance P analog = 100%, read-out: RSAT Eff(%).

Chain of Ghrelin receptor (Q92847 whole entry): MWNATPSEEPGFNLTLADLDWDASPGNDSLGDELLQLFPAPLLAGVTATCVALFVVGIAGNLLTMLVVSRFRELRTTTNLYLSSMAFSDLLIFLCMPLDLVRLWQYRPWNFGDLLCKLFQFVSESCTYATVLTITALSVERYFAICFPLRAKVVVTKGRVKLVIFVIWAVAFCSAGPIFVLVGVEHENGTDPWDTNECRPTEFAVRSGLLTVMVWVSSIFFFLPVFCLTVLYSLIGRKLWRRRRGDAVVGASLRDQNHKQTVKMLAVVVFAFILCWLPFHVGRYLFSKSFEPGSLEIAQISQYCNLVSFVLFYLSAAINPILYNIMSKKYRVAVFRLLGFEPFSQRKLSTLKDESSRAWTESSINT

Regarding `CC(=O)c1c(C)n(CCCN2CCN(CCOc3ccccc3)CC2)c2c(Br)cccc12`, the IC50 was 1.26 µM and the Emax was determined as 57%.
For `CC(=O)c1cn(CCCN2CCN(C(C)c3ccccc3)CC2)c2ccc(Br)cc12` (stereo not shown) the same measures were 1.26 µM and 72%.
For `O=C(c1cn(CCCN2CCC(Oc3ccc(Cl)cc3)CC2)c2ccccc12)C(F)(F)F` the same measures were 1.58 µM and 77%.
For `CCC(=O)c1cn(CCCN2CCC(Cc3ccccc3)CC2)c2ccccc12` the same measures were 1.58 µM and 109%.
Consider `CC(C)CC(=O)c1cn(CCCN2CCC(Oc3ccccc3Cl)CC2)c2ccccc12`, for which the IC50 is 1.58 µM and the Emax worked out at 96%.
In the case of `COc1ccccc1C1CCN(CCCn2cc(C(=O)C(F)(F)F)c3ccccc32)CC1`, the IC50 was 1.58 µM and the Emax was found to be 82%.
`CCCCC1CCN(CC(C)Cn2c(=O)sc3ccccc32)CC1` (stereo not shown): the IC50 was 2 µM and the Emax came out at 84%.
Take `CCCCC1CCN(CC(C)Cn2cc(C(C)=O)c3ccccc32)CC1` (stereo not shown): the IC50 was 2 µM and the Emax worked out at 76%.
As to `COc1ccccc1C1CCN(CCCCn2cc(C(C)=O)c3ccccc32)CC1`, the IC50 is 2 µM and the Emax turned out to be 58%.
The corresponding values for `CC(=O)c1cn(CCCCN2CCN(C(C)c3ccccc3)CC2)c2ccccc12` (stereo not shown) are 2 µM and 69%.
Take `O=C(c1cn(CCCN2CCC(Oc3ccccc3Cl)CC2)c2ccccc12)C(F)(F)F`: the IC50 was 2 µM and the Emax turned out to be 81%.
`COc1ccc2c(c1)c(C(C)=O)cn2CCCN1CCC(c2ccccc2OC)CC1`: the IC50 is 2 µM and the Emax is 66%.
With `CC(=O)CCc1cn(CCCN2CCN(C(C)c3ccccc3)CC2)c2ccccc12` (stereo not shown), the IC50 was 2 µM and the Emax was 46%.
For `CC(C)CC(=O)c1cn(CCCN2CCC(C(=O)c3ccccc3)CC2)c2ccccc12`, the IC50 is 2 µM and the Emax was determined as 67%.
On to `CC(=O)c1cn(CCCN2CCC(Oc3ccc(Cl)cc3)CC2)c2c(Cl)cccc12`, for which the IC50 is 2 µM and the Emax was 107%.
`CCCOC1CCN(CC(C)Cn2c(=O)sc3ccccc32)CC1` (stereo not shown): the IC50 is 2.51 µM and the Emax turned out to be 71%.
On to `COc1cccc2c(C(C)=O)cn(CCCN3CCC(N(C)C(C)=O)C3)c12` (stereo not shown), for which the IC50 is 2.51 µM and the Emax was 60%.
Consider `CCC(=O)c1cn(CCCN2C3CCC2CC(OCC2CC2)C3)c2ccccc12` (stereo not shown), for which the IC50 was 2.51 µM and the Emax was found to be 120%.
For `CC(=O)c1cn(CC(C)CN2CCC(c3nc4ccccc4s3)CC2)c2ccccc12` (stereo not shown) the same measures were 2.51 µM and 78%.
On to `CC(=O)c1cn(CCCN2CCC(Oc3ccc(F)cc3)CC2)c2cc(Br)ccc12`, for which the IC50 was 2.51 µM and the Emax was 64%.
Turning to `CCC(=O)c1cn(CCCN2CCN(C(C)c3ccccc3)CC2)c2ccccc12` (stereo not shown), the IC50 is 2.51 µM and the Emax is 57%.
For the compound `CC(=O)c1cn(CCN2C3CCC2CC(O)(c2ccc(F)cc2)C3)c2ccccc12` (stereo not shown), the IC50 is 2.51 µM and the Emax is -11%.
On to `CC(=O)CCc1cn(CCCN2CCC(c3nc4ccccc4s3)CC2)c2ccccc12`, for which the IC50 was 2.51 µM and the Emax came out at 84%.
On to `COc1ccc2[nH]c3c(c2c1)CCN(CCCn1cc(C(=O)C(F)(F)F)c2ccccc21)C3`, for which the IC50 was 2.51 µM and the Emax is 106%.
Take `CC(=O)c1cn(CCCCN2C3CCC2CC(Oc2ccc(Cl)cc2)C3)c2ccccc12` (stereo not shown): the IC50 is 3.16 µM and the Emax turned out to be 119%.
For the compound `CC(=O)c1cn(CC(O)CN2CCC(Oc3ccccc3Cl)CC2)c2ccccc12` (stereo not shown), the IC50 was 3.16 µM and the Emax turned out to be 69%.
For `CCCCC1CCN(CCCn2cc(C(C)=O)c3ccc(Br)cc32)CC1`, the IC50 was 3.16 µM and the Emax came out at 93%.
For the compound `CC(=O)c1cn(CC(O)CN2CCC(Oc3ccc(Cl)cc3)CC2)c2ccccc12` (stereo not shown), the IC50 was 3.16 µM and the Emax came out at 73%.
In the case of `CC(=O)CCc1cn(CCCN2C3CCC2CC(OCC2CC2)C3)c2ccccc12` (stereo not shown), the IC50 is 3.16 µM and the Emax turned out to be 103%.
Consider `COc1ccc2c(C(C)=O)cn(CCCN3CCC(C(C)c4ccccc4)CC3)c2c1` (stereo not shown), for which the IC50 is 3.16 µM and the Emax turned out to be 73%.
Take `O=C(c1cn(CCCN2CCC(O)(Cc3ccccc3)CC2)c2ccccc12)C(F)(F)F`: the IC50 was 3.98 µM and the Emax worked out at 111%.
For `CC(=O)c1cn(CC(C)CN2CCC(Cc3ccccc3)CC2)c2ccccc12` (stereo not shown), the IC50 was 3.98 µM and the Emax was 121%.
Turning to `CC(=O)c1cn(CCCCN2CCC(Cc3ccccc3)CC2)c2ccccc12`, the IC50 is 3.98 µM and the Emax stood at 86%.
In the case of `COc1ccccc1C1CCN(CCCn2cc(CCC(C)=O)c3ccccc32)CC1`, the IC50 is 5.01 µM and the Emax turned out to be 78%.
For `CC(=O)c1cn(CCCN2CCC(Oc3ccccc3Cl)CC2)c2cc(Br)ccc12` the same measures were 5.01 µM and 67%.
For `CC(=O)c1cn(CCCN2CCC(C(=O)c3ccccc3)CC2)c2ccccc12`, the IC50 was 5.01 µM and the Emax was found to be 64%.
Take `O=C(c1cn(CCCN2CCC(Cc3ccccc3)CC2)c2ccccc12)C(F)(F)F`: the IC50 was 6.31 µM and the Emax amounted to 112%.
The corresponding values for `CC(=O)c1cn(CC(O)CN2CCC(C(=O)c3ccccc3)CC2)c2ccccc12` (stereo not shown) are 6.31 µM and 26%.
Consider `CC(=O)c1cn(CCCNC2Cc3ccccc3C2)c2c(Cl)cccc12`, for which the IC50 is 6.31 µM and the Emax came out at 96%.
With `CCOC(=O)C1CCN(CCCn2cc(C(=O)CC)c3ccccc32)CC1`, the IC50 is 6.31 µM and the Emax amounted to 39%.
Turning to `COc1cccc2c(C(C)=O)cn(CCCN3CCC(S(=O)(=O)c4ccc(Cl)cc4)CC3)c12`, the IC50 is 10 µM and the Emax was 71%.
Take `CC(=O)c1cn(CCCN2C3CCC2CC(Oc2ccc(Cl)cc2)C3)c2cc(Br)ccc12` (stereo not shown): the IC50 was 10 µM and the Emax was 74%.
Turning to `CC(=O)c1cn(CCCN2CCC(C(=O)c3ccccc3)CC2)c2ccc(Br)cc12`, the IC50 was 10 µM and the Emax came out at 60%.
Regarding `CCCOC1CCN(CCCn2cc(CCC(C)=O)c3ccccc32)CC1`, the IC50 was 15.8 µM and the Emax worked out at 75%.
On to `CCC(=O)c1cn(CCCN2CCC(C(=O)c3ccccc3)CC2)c2ccccc12`, for which the IC50 is 15.8 µM and the Emax was 53%.
For `COc1ccccc1C1CCN(CC(C)Cn2cc(C(C)=O)c3ccccc32)CC1` (stereo not shown) the same measures were 15.8 µM and 64%.
`CC(=O)c1cn(CCCN2CCC(Oc3ccccc3Cl)CC2)c2ccc(Br)cc12`: the IC50 is 15.8 µM and the Emax is 74%.
Consider `CC(=O)c1cn(CCCN2CCC(c3nc(-c4cccnc4)no3)CC2)c2ncccc12`, for which the IC50 was 20 µM and the Emax came to 55%.
Consider `CCCOC1CCN(CC(O)Cn2cc(C(C)=O)c3ccccc32)CC1` (stereo not shown), for which the IC50 was 31.6 µM and the Emax amounted to 18%.
Turning to `COc1ccc2c(c1)c(C(C)=O)cn2CCCN1C2CCC1CC(OCC1CC1)C2` (stereo not shown), the IC50 is 31.6 µM and the Emax is 74%.
